19 molecules from patent US12331044B2, “Inhibitors of histone deacetylase useful for the treatment or prevention of HIV infection” (Merck Sharp & Dohme LLC, priority 2018, dated 2025) can be followed below.

One experiment concerns the target human HDAC2 (Homo sapiens (Human), UniProt Q92769). Kind of experiment: HDAC2 inhibition assay (modified FLUOR DE LYS, 384-well). It is filed as biochemical. The conditions noted are these: […] enzyme, 40 μM substrate BML-KI104, 3 h pre-incubation; read-out: HDAC2 IC50.
In a further experiment the target is human HDAC1 (Homo sapiens (Human), UniProt Q13547).
Sequence of human HDAC1 (Q13547 whole entry): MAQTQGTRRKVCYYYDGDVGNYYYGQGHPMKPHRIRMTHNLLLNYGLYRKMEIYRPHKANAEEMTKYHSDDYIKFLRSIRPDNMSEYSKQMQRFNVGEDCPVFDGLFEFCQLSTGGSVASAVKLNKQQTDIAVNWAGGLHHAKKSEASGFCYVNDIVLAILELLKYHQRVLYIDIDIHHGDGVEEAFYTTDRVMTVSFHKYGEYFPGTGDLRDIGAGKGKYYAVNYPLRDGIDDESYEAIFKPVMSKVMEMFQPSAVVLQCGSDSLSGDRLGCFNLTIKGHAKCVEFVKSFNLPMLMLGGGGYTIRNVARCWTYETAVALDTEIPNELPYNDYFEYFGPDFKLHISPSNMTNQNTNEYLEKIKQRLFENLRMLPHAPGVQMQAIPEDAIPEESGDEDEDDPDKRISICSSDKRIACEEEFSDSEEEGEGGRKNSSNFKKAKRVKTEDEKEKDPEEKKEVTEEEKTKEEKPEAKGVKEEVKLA
For the next experiment, the target named is human HDAC8 (Homo sapiens (Human), UniProt Q9BY41). Briefly: HDAC8 inhibition assay (modified FLUOR DE LYS, 384-well). It is filed as biochemical. The conditions noted are these: […] enzyme, 200 μM substrate BML-KI178, 3 h pre-incubation; read-out: HDAC8 IC50.
Sequence of human HDAC8 (Q9BY41 whole entry): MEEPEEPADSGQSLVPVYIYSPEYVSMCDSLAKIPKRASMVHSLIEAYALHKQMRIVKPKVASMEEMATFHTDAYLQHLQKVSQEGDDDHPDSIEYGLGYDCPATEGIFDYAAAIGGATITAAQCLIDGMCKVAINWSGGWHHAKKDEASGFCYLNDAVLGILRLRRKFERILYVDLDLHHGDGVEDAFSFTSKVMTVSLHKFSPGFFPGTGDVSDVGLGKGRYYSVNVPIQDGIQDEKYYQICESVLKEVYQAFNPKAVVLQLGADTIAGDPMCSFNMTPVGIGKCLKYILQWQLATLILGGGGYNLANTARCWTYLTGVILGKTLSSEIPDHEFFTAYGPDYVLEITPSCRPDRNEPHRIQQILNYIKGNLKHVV
Experiment [1] concerns the target human HDAC3/SMRT heterodimer (Homo sapiens (Human), UniProt O15379).
The target in the next experiment is HDAC6 (Homo sapiens (Human), UniProt Q9UBN7).
Sequence of HDAC6 (Q9UBN7 whole entry): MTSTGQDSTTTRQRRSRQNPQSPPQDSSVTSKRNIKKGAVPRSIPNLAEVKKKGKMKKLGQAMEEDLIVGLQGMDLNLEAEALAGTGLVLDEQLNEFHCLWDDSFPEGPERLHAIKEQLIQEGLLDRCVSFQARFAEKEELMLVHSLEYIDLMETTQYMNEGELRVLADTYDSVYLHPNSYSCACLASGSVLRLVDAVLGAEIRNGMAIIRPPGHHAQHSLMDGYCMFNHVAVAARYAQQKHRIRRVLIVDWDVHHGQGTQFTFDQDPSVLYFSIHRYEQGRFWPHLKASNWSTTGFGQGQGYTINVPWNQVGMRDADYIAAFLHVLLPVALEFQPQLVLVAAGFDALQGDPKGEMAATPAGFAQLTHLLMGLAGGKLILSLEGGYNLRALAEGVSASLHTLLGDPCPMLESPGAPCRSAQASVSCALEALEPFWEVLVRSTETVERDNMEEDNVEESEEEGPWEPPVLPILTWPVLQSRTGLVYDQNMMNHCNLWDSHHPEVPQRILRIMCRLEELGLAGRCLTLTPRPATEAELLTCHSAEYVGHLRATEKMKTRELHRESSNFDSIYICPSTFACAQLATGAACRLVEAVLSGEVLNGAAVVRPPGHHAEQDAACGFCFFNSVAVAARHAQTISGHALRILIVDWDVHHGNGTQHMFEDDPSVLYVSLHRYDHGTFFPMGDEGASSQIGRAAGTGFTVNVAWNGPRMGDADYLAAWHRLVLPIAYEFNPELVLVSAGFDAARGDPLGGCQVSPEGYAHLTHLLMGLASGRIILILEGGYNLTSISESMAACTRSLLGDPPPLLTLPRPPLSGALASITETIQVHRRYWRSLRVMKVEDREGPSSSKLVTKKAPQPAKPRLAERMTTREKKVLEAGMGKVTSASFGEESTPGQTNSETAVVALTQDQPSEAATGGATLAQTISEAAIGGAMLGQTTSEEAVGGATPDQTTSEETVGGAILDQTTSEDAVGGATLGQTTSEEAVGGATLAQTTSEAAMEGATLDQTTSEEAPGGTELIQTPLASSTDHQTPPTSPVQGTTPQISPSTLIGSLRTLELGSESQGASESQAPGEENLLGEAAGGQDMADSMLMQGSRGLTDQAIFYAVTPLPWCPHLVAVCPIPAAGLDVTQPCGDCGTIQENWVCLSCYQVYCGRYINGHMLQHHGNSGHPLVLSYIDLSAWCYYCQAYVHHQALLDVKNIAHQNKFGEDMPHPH
The subject of another experiment is KARN cells (Jurkat 2C4). Kind of experiment: cells. The conditions noted are these: Homo sapiens.
Where [2] appears, read: read-out: Karn EC50 nM 0.1% NHS, 0.1% normal human serum, luciferase induction, 2 μM SAHA = 100%.
[3] abbreviates: read-out: Karn EC50 nM 5% NHS, 5% normal human serum, luciferase induction, 2 μM SAHA = 100%.

Where two headings read alike, the source gives them in different places.

Sequence of human HDAC3/SMRT heterodimer (O15379 whole entry): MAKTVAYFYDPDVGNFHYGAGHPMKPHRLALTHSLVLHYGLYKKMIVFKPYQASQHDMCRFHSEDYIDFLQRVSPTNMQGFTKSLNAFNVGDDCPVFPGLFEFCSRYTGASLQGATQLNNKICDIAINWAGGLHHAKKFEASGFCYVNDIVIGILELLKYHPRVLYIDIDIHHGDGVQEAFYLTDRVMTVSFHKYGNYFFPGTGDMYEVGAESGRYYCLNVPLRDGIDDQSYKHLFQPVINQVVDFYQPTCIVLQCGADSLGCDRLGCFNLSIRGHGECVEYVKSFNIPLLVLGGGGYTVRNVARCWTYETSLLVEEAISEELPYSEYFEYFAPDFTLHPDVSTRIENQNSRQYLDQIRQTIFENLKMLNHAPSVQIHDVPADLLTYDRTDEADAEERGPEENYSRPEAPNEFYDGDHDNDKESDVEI
Sequence of human HDAC3/SMRT heterodimer (Q9Y618 1-899 partner): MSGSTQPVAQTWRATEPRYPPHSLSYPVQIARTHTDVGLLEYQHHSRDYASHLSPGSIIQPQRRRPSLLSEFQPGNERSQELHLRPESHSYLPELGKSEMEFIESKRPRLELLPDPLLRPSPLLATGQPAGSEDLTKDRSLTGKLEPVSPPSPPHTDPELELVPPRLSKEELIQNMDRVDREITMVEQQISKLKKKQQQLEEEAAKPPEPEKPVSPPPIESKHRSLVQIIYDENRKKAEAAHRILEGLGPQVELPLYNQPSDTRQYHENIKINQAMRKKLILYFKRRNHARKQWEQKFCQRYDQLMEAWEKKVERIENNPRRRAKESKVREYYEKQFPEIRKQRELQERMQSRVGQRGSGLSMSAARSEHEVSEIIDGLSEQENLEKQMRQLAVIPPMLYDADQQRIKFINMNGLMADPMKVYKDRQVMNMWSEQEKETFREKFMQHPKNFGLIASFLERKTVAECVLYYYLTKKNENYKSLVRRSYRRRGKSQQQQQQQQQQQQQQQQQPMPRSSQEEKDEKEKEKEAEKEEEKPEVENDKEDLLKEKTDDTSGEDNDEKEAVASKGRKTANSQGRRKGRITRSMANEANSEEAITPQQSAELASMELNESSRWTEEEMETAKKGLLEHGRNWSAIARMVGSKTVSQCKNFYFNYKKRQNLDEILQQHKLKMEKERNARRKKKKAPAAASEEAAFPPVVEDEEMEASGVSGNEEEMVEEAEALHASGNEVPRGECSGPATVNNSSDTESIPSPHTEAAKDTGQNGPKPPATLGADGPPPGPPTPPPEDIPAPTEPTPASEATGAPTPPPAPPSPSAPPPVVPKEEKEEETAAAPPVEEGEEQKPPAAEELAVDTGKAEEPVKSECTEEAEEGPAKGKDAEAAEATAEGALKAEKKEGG
Sequence of human HDAC2 (Q92769 whole entry): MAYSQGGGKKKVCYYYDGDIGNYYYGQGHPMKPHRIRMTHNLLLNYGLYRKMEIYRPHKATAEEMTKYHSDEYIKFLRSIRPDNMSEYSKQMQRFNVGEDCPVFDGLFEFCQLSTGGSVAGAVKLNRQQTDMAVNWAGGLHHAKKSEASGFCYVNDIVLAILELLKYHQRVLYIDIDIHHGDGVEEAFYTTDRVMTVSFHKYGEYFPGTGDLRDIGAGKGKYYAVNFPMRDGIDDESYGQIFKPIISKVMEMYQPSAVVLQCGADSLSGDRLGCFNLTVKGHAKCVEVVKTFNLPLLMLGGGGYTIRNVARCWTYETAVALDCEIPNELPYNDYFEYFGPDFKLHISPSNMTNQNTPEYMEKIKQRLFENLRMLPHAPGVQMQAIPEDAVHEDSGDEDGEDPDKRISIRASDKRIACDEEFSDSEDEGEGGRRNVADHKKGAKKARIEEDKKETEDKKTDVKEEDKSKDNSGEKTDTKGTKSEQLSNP

For `CCN(CC)CC(=O)N[C@@H](CCCCCC(=O)c1ncco1)c1ncc(-c2cc3ccccc3nc2OC)[nH]1` [Example 50], the 50% inhibitory concentration (IC50) was determined as 3.2 nM on human HDAC2; 0.99 nM against human HDAC1; 47 nM on human HDAC8; 1.3 nM in experiment [1]; 1700 nM against HDAC6. For the same molecule, the EC50 with KARN cells (Jurkat 2C4) (setting [2]) stood at 21 nM; in the experiment on KARN cells (Jurkat 2C4) (setting [3]), 140 nM.
As for `COc1nc2ccccc2cc1-c1cnc([C@H](CCCCCC(=O)c2ncco2)NC(=O)CN2CCC2)[nH]1` [Example 51], the IC50 on human HDAC2 was found to be 2.3 nM; against human HDAC1 it was 0.38 nM; on human HDAC8 it was 31 nM; in experiment [1], 0.66 nM; at HDAC6, 690 nM. Also, the concentration for a half-maximal effect (EC50) came to 11 nM in the experiment with KARN cells (Jurkat 2C4) (setting [2]) and 56 nM in the experiment with KARN cells (Jurkat 2C4) (setting [3]).
`COc1nc2ccccc2cc1-c1cnc([C@H](CCCCCC(=O)c2ncco2)NC(=O)CN2CCCCC2)[nH]1` [Example 53]: the IC50 was 4.9 nM on human HDAC2; 2.4 nM against human HDAC1; 92 nM on human HDAC8; 1.6 nM in experiment [1]; 1100 nM at HDAC6. For the same molecule, the results for the half-maximal effective concentration (EC50) in the experiment with KARN cells (Jurkat 2C4) (setting [2]) and in the experiment on KARN cells (Jurkat 2C4) (setting [3]) were 26 nM and 220 nM, respectively.
`COc1cc2nc(C)ccc2cc1-c1cnc([C@H](CCCCCC(=O)c2cc(C)on2)NC(=O)CN(C)C)[nH]1` [Example 56]: the half-maximal inhibitory concentration (IC50) at human HDAC2 stood at 1.8 nM; on human HDAC1, 0.4 nM; at human HDAC8, 310 nM; in experiment [1], 0.37 nM; against HDAC6 it was 45000 nM. For the same molecule, the values for the EC50 in the experiment on KARN cells (Jurkat 2C4) (setting [2]) and in the experiment with KARN cells (Jurkat 2C4) (setting [3]) were 6.4 nM and 11 nM, respectively.
Consider `COc1cc2nc(C)ccc2cc1-c1cnc([C@H](CCCCCC(=O)c2cc(C)on2)NC(=O)C2CN(C)C2)[nH]1` [Example 57], for which the 50% inhibitory concentration (IC50) was determined as 1 nM at human HDAC2; 0.23 nM against human HDAC1; 150 nM at human HDAC8; 0.24 nM in experiment [1]; 45000 nM on HDAC6. In addition, the EC50 with KARN cells (Jurkat 2C4) (setting [2]) turned out to be 5.5 nM; with KARN cells (Jurkat 2C4) (setting [3]), 13 nM.
`COc1cc2nc(C)ccc2cc1-c1cnc([C@H](CCCCCC(=O)c2cc(C)on2)NC(=O)C2CC23CCN(C)CC3)[nH]1` (stereo partly shown) [Example 58]: the IC50 came out at 0.9 nM on human HDAC2; 0.18 nM at human HDAC1; 120 nM on human HDAC8; 0.18 nM in experiment [1]; 45000 nM on HDAC6. Also, the figures for the 50% effective concentration (EC50) with KARN cells (Jurkat 2C4) (setting [2]) and with KARN cells (Jurkat 2C4) (setting [3]) were 6.8 nM and 11 nM, respectively.
Take `CN(C)C1(C(=O)N[C@@H](CCCCCC(=O)c2ccon2)c2ncc(-c3ccccc3F)[nH]2)CCC1` [Example 63]: the IC50 was 2.1 nM on human HDAC2; 0.54 nM on human HDAC1; 3.8 nM on human HDAC8; 0.46 nM in experiment [1]; over 900 nM against HDAC6. Moreover, the 50% effective concentration (EC50) with KARN cells (Jurkat 2C4) (setting [2]) was 11 nM; in the experiment on KARN cells (Jurkat 2C4) (setting [3]) it was 32 nM.
`CN(C)C1(C(=O)N[C@@H](CCCCCC(=O)c2ccon2)c2ncc(-c3ccccc3F)[nH]2)CCCC1` [Example 64]: the half-inhibitory concentration (IC50) on human HDAC2 was 2.1 nM; at human HDAC1 it was 0.58 nM; on human HDAC8 it was 3.5 nM; in experiment [1], 0.64 nM; on HDAC6, over 900 nM. Also, the EC50 was 16 nM in the experiment with KARN cells (Jurkat 2C4) (setting [2]) and 28 nM in the experiment on KARN cells (Jurkat 2C4) (setting [3]).
`CN[C@@H](CCCCCC(=O)c1ncco1)c1ncc(-c2ccc3nc(C)ccc3c2)[nH]1` [Example 75, (S)-7-(methylamino)-7-(5-(2-methylquinolin-6-yl)-1H-imidazol-2-yl)-1-(oxazol-2-yl)heptan-1-one]: the concentration for half-maximal inhibition (IC50) turned out to be 7 nM on human HDAC2; 2.4 nM against human HDAC1; 3400 nM on human HDAC8; 3.9 nM in experiment [1]; 26000 nM against HDAC6. In addition, the half-maximal effective concentration (EC50) was 300 nM in the experiment on KARN cells (Jurkat 2C4) (setting [2]) and 220 nM in the experiment on KARN cells (Jurkat 2C4) (setting [3]).
Consider `COc1cc2nc(C)ccc2cc1-c1cnc([C@H](CCCCCC(=O)c2ncco2)NCc2ccccc2)[nH]1` [Example 82, (S)-7-(benzylamino)-7-(5-(7-methoxy-2-methylquinolin-6-yl)-1H-imidazol-2-yl)-1-(oxazol-2-yl)heptan-1-one], for which the IC50 on human HDAC2 was determined as 7.8 nM; on human HDAC1, 3.1 nM; at human HDAC8, 1800 nM; in experiment [1], 2.7 nM; against HDAC6, 1500 nM. The concentration for a half-maximal effect (EC50) in the experiment on KARN cells (Jurkat 2C4) (setting [2]) was determined as 180 nM; in the experiment on KARN cells (Jurkat 2C4) (setting [3]), 320 nM.
Regarding `COc1cc2nc(C)ccc2cc1-c1cnc([C@H](CCCCCC(=O)c2ccon2)NC(=O)CN(C)C)[nH]1` [Example 91], the IC50 at human HDAC2 came to 1.9 nM; against human HDAC1, 1.5 nM; on human HDAC8 it was 14 nM; in experiment [1], 1.5 nM; against HDAC6, 11000 nM. Moreover, the EC50 stood at 17 nM in the experiment on KARN cells (Jurkat 2C4) (setting [2]) and 22 nM in the experiment with KARN cells (Jurkat 2C4) (setting [3]).
As to `COc1cc2c(ccc(=O)n2C)cc1-c1cnc([C@H](CCCCCC(=O)c2ncco2)NC(=O)CN(C)C)[nH]1` [Example 92], the IC50 was found to be 6.2 nM on human HDAC2; 0.92 nM against human HDAC1; 57 nM at human HDAC8; 1.1 nM in experiment [1]; 4500 nM against HDAC6. Also, the values for the EC50 with KARN cells (Jurkat 2C4) (setting [2]) and with KARN cells (Jurkat 2C4) (setting [3]) were 32 nM and 64 nM, respectively.
Regarding `COc1cc2c(ccc(=O)n2C)cc1-c1cnc([C@H](CCCCCC(=O)c2ccon2)NC(=O)CN(C)C)[nH]1` [Example 93], the half-inhibitory concentration (IC50) turned out to be 2.2 nM on human HDAC2; 0.37 nM against human HDAC1; 3.5 nM at human HDAC8; 0.46 nM in experiment [1]; 4500 nM on HDAC6. Besides, the EC50 in the experiment with KARN cells (Jurkat 2C4) (setting [2]) is 6.6 nM; with KARN cells (Jurkat 2C4) (setting [3]) it was 14 nM.
In the case of `CCn1ccc2cc(-c3cnc([C@H](CCCCCC(=O)c4ncco4)NC(=O)CN(C)C)[nH]3)c(OC)cc2c1=O` [Example 96, (S)-2-(dimethylamino)-N-(1-(5-(2-ethyl-7-methoxy-1-oxo-1,2-dihydroisoquinolin-6-yl)-1H-imidazol-2-yl)-7-(oxazol-2-yl)-7-oxoheptyl)acetamide], the IC50 was 3.8 nM at human HDAC2; 0.51 nM at human HDAC1; 57 nM at human HDAC8; 0.94 nM in experiment [1]; 920 nM at HDAC6. Moreover, the EC50 was found to be 14 nM in the experiment on KARN cells (Jurkat 2C4) (setting [2]) and 24 nM in the experiment with KARN cells (Jurkat 2C4) (setting [3]).
Regarding `COc1cc2c(ccc(=O)n2C)cc1-c1cnc([C@H](CCCCCC(=O)c2ccon2)NC(=O)C2CN(C)C2)[nH]1` [Example 102, (S)-N-(7-(isoxazol-3-yl)-1-(5-(7-methoxy-1-methyl-2-oxo-1,2-dihydroquinolin-6-yl)-1H-imidazol-2-yl)-7-oxoheptyl)-1-methylazetidine-3-carboxamide], the IC50 at human HDAC2 is 0.78 nM; on human HDAC1, 0.24 nM; on human HDAC8, 3.1 nM; in experiment [1], 0.25 nM; against HDAC6, over 900 nM. Also, the EC50 in the experiment on KARN cells (Jurkat 2C4) (setting [2]) stood at 170 nM; with KARN cells (Jurkat 2C4) (setting [3]) it was 270 nM.
For the molecule `COc1cc2nc(C)ccc2cc1-c1cnc([C@H](CCCCCC(=O)c2ccon2)NC(=O)C2CN(C)C2)[nH]1` [Example 103, (S)-N-(7-(isoxazol-3-yl)-1-(5-(7-methoxy-2-methylquinolin-6-yl)-1H-imidazol-2-yl)-7-oxoheptyl)-1-methylazetidine-3-carboxamide], the half-maximal inhibitory concentration (IC50) is 0.44 nM on human HDAC2; 0.13 nM against human HDAC1; 3 nM at human HDAC8; 0.18 nM in experiment [1]; over 900 nM against HDAC6. Besides, the EC50 in the experiment on KARN cells (Jurkat 2C4) (setting [2]) is 6 nM; in the experiment with KARN cells (Jurkat 2C4) (setting [3]), 8.3 nM.
As for `CN1CCC2(CC1)C[C@@H]2C(=O)N[C@@H](CCCCCC(=O)c1ccon1)c1[nH]c(-c2ccccc2F)nc1Cl` [Example 112, (S)-N-((S)-1-(4-chloro-2-(2-fluorophenyl)-1H-imidazol-5-yl)-7-(isoxazol-3-yl)-7-oxoheptyl)-6-methyl-6-azaspiro[2.5]octane-1-carboxamide], the IC50 at human HDAC2 came to 0.25 nM; against human HDAC1, 0.083 nM; on human HDAC8, 23 nM; in experiment [1], 0.035 nM; against HDAC6, 4600 nM. For the same molecule, the EC50 with KARN cells (Jurkat 2C4) (setting [2]) and in the experiment with KARN cells (Jurkat 2C4) (setting [3]) was 1.4 nM throughout.
On to `COc1cc2nc(C)ccc2cc1-c1cnc([C@H](CCCCCC(=O)c2ncco2)NC(=O)[C@H]2CC23CCN(C)CC3)o1` [Example 113, (S)-N-((S)-1-(5-(7-methoxy-2-methylquinolin-6-yl)oxazol-2-yl)-7-(oxazol-2-yl)-7-oxoheptyl)-6-methyl-6-azaspiro[2.5]octane-1-carboxamide], for which the IC50 on human HDAC2 worked out at 2.5 nM; at human HDAC1, 0.41 nM; on human HDAC8, 180 nM; in experiment [1], 0.58 nM; at HDAC6, 200 nM. The EC50 in the experiment with KARN cells (Jurkat 2C4) (setting [2]) worked out at 18 nM; with KARN cells (Jurkat 2C4) (setting [3]), 12 nM.
`COc1nc(C2CC2)ccc1-c1c[nH]c([C@H](CCCCCC(=O)c2ncco2)NC(=O)[C@H]2CC23CCN(C)CC3)n1` [Example 115, (S)-N-((S)-1-(4-(6-cyclopropyl-2-methoxypyridin-3-yl)-1H-imidazol-2-yl)-7-(oxazol-2-yl)-7-oxoheptyl)-6-methyl-6-azaspiro[2.5]octane-1-carboxamide]: the IC50 at human HDAC2 was 3.9 nM; against human HDAC1 it was 0.66 nM; on human HDAC8 it was 51 nM; in experiment [1], 0.84 nM; on HDAC6, 300 nM. For the same molecule, the concentration giving a half-maximal response (EC50) was determined as 37 nM in the experiment with KARN cells (Jurkat 2C4) (setting [2]) and 58 nM with KARN cells (Jurkat 2C4) (setting [3]).

Broadly, the IC50 is the concentration at which inhibition is half-maximal. Usually EC50 stands for the midpoint of the concentration-response curve.
